From patent US8575135B2 (Gilead Sciences, Inc., priority 2011, dated 2013) come the findings set out here.

Experiment in all cases: microbe, parasite or virus in culture
Common to all, as to settings: Hepatitis C virus

Assay [1] has as its system NS5A chimeric genotype 1b Con1 replicon with genotype 3a S52 strain NS5A gene. Format: cell-based, HCV. In short, it runs like this:
(§1)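 Con1-based 3a and 4a chimeras carried a Pi-RLuc reporter and were transiently transfected into Huh-Lunet cells; the JFH-1-based 2b chimera (RLuc-Neo) was used transiently or as stable replicon cells.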

Assay [2] has as its system NS5A chimeric genotype 2a JFH-1 replicon with genotype 2a J6 strain NS5A gene (M31 present). The format is cell-based, HCV.
The subject of assay [3] is NS5A chimeric genotype 2a JFH-1 replicon with genotype 2b MD2b-1 strain NS5A gene (M31 present). The format is cell-based, HCV. In short, it runs like this: as §1
In assay [4] the test system is stable HCV 2a JFH-1 Rluc replicon cells (L31 present in NS5A). Format: cell-based.
Assay [5] relates to stable HCV 1a RLuc replicon cells (genotype 1a H77 replicon). Format: cell-based.
The subject of assay [6] is NS5A chimeric genotype 1b Con1 replicon with genotype 4a ED43 strain NS5A gene. Format: cell-based, HCV.
Assay [7] has as its system 1a Pi-Rluc replicon with Q30R in genotype 1a NS5A. The format is cell-based, HCV. In a few lines:
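Renilla luciferase replicon assay: 1a Pi-RLuc replicon carrying NS5A Q30R, transfected transiently into cured-51 (Huh-7-derived) cells.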

Read-outs that look alike come from different tables or passages of the source.

For `COC(=O)N[C@H](C(=O)N1C[C@@H](C)C[C@H]1c1nc2ccc3cc4c(cc3c2[nH]1)OCc1cc(-c2cnc([C@@H]3CCCN3C(=O)[C@H](NC(=O)OC)c3ccccc3)[nH]2)ccc1-4)C(C)C` [Example NB, Methyl {(1R)-2-[(2S)-2-(5-{2-[(2S,4S)-1-{(2S)-2-[(methoxycarbonyl)amino]-3-methylbutanoyl}-4-methylpyrrolidin-2-yl]-1,11-dihydroisochromeno[4′,3′:6,7]naphtho[1,2-d]imidazol-9-yl}-1H-imidazol-2-yl)pyrrolidin-1-yl]-2-oxo-1-phenylethyl}carbamate], the EC50 is below 1 nM in assay [1] (read-out: 3a); 0.011 nM in assay [1] (read-out: 3a (nM)); below 1 nM in assay [2] (read-out: 2a J6); 0.138 nM in assay [2] (read-out: 2a J6 (s) (nM)); 0.02 nM in assay [2] (read-out: 2a Jb (t) (nM)); below 1 nM in assay [3] (read-out: 2b). The EC50 in assay [3] (read-out: 2b (s) (nM)) is 0.039 nM; in assay [3] (read-out: 2b (t) (nM)), 0.007 nM; in assay [4] (read-out: 2a JFH), below 1 nM; in assay [4] (read-out: 2a JFH (nM)), 0.004 nM; in assay [5] (read-out: 1a), below 1 nM; in assay [5] (read-out: 1a (nM)), 0.01 nM. Moreover, the EC50 was below 1 nM in assay [6] (read-out: 4a); 0.025 nM in assay [6] (read-out: 4a (s) (nM)); 0.023 nM in assay [6] (read-out: 4a (t) (nM)); below 1 nM in assay [7] (read-out: 1a Q30R); 0.034 nM in assay [7] (read-out: 1a Q30R (nM)).
As to `COC(=O)N[C@H](C(=O)N1C[C@@H](C)C[C@H]1c1nc2ccc3cc4c(cc3c2[nH]1)OCc1cc(-c2cnc([C@@H]3CC[C@H](C)N3C(=O)[C@@H](NC(=O)OC)C(C)C)[nH]2)ccc1-4)C(C)C` [Example NC, Methyl {(2S)-1-[(2S,5S)-2-(5-{2-[(2S,4S)-1-{(2S)-2-[(methoxycarbonyl)amino]-3-methylbutanoyl}-4-methylpyrrolidin-2-yl]-1,11-dihydroisochromeno[4′,3′:6,7]naphtho[1,2-d]imidazol-9-yl}-1H-imidazol-2-yl)-5-methylpyrrolidin-1-yl]-3-methyl-1-oxobutan-2-yl}carbamate], the EC50 is below 1 nM in assay [1] (read-out: 3a); 0.014 nM in assay [1] (read-out: 3a (nM)); below 1 nM in assay [2] (read-out: 2a J6); 0.762 nM in assay [2] (read-out: 2a J6 (s) (nM)); 0.089 nM in assay [2] (read-out: 2a Jb (t) (nM)); below 1 nM in assay [3] (read-out: 2b). Further, the EC50 in assay [3] (read-out: 2b (s) (nM)) was 0.191 nM; in assay [3] (read-out: 2b (t) (nM)) it was 0.068 nM; in assay [4] (read-out: 2a JFH) it was below 1 nM; in assay [4] (read-out: 2a JFH (nM)), 0.005 nM; in assay [5] (read-out: 1a) it was below 1 nM; in assay [5] (read-out: 1a (nM)) it was 0.007 nM. For the same compound, the EC50 in assay [6] (read-out: 4a) is below 1 nM; in assay [6] (read-out: 4a (s) (nM)), 0.026 nM; in assay [6] (read-out: 4a (t) (nM)), 0.011 nM; in assay [7] (read-out: 1a Q30R), below 1 nM; in assay [7] (read-out: 1a Q30R (nM)), 0.06 nM.
Regarding `COC(=O)N[C@H](C(=O)N1C[C@@H](C)C[C@H]1c1ncc(-c2ccc3c(c2)COc2cc4c(ccc5nc([C@@H]6C[C@H](C)CN6C(=O)[C@@H](NC(=O)OC)C(C)C)[nH]c54)cc2-3)[nH]1)C(C)C` [Example ND, Methyl {(2S)-1-[(2S,5S)-2-(5-{2-[(2S,4S)-1-{(2S)-2-[(methoxycarbonyl)amino]-3-methylbutanoyl}-4-methylpyrrolidin-2-yl]-1,11-dihydroisochromeno[4′,3′:6,7]naphtho[1,2-d]imidazol-9-yl}-1H-imidazol-2-yl)-4-methylpyrrolidin-1-yl]-3-methyl-1-oxobutan-2-yl}carbamate], the EC50 was below 1 nM in assay [1] (read-out: 3a); 0.035 nM in assay [1] (read-out: 3a (nM)); below 1 nM in assay [2] (read-out: 2a J6); 2.34 nM in assay [2] (read-out: 2a J6 (s) (nM)); 0.314 nM in assay [2] (read-out: 2a Jb (t) (nM)); below 1 nM in assay [3] (read-out: 2b). Also, the EC50 was 1.32 nM in assay [3] (read-out: 2b (s) (nM)); 0.27 nM in assay [3] (read-out: 2b (t) (nM)); below 1 nM in assay [4] (read-out: 2a JFH); 0.014 nM in assay [4] (read-out: 2a JFH (nM)); below 1 nM in assay [5] (read-out: 1a); 0.02 nM in assay [5] (read-out: 1a (nM)). The EC50 was below 1 nM in assay [6] (read-out: 4a); 0.044 nM in assay [6] (read-out: 4a (s) (nM)); 0.031 nM in assay [6] (read-out: 4a (t) (nM)); below 1 nM in assay [7] (read-out: 1a Q30R); 0.057 nM in assay [7] (read-out: 1a Q30R (nM)).
Take `COC(=O)N[C@H](C(=O)N1C[C@@H](C)C[C@H]1c1ncc(-c2ccc3c(c2)COc2cc4c(ccc5nc([C@@H]6C[C@H](C)CN6C(=O)[C@H](NC(=O)OC)c6ccccc6)[nH]c54)cc2-3)[nH]1)C(C)C` [Example NF, Methyl {(2S)-1-[(2S,4S)-2-(5-{2-[(2S,4S)-1-{(2R)-2-[(methoxycarbonyl)amino]-2-phenylacetyl}-4-methylpyrrolidin-2-yl]-1,11-dihydroisochromeno[4′,3′:6,7]naphtho[1,2-d]imidazol-9-yl}-1H-imidazol-2-yl)-4-methylpyrrolidin-1-yl]-3-methyl-1-oxobutan-2-yl}carbamate]: the EC50 is below 1 nM in assay [1] (read-out: 3a); 0.017 nM in assay [1] (read-out: 3a (nM)); below 1 nM in assay [2] (read-out: 2a J6); 0.218 nM in assay [2] (read-out: 2a J6 (s) (nM)); 0.031 nM in assay [2] (read-out: 2a Jb (t) (nM)); below 1 nM in assay [3] (read-out: 2b). For the same compound, the EC50 in assay [3] (read-out: 2b (s) (nM)) is 0.064 nM; in assay [3] (read-out: 2b (t) (nM)), 0.018 nM; in assay [4] (read-out: 2a JFH), below 1 nM; in assay [4] (read-out: 2a JFH (nM)), 0.006 nM; in assay [5] (read-out: 1a), below 1 nM; in assay [5] (read-out: 1a (nM)), 0.011 nM. The EC50 in assay [6] (read-out: 4a) is below 1 nM; in assay [6] (read-out: 4a (s) (nM)), 0.012 nM; in assay [6] (read-out: 4a (t) (nM)) it was 0.009 nM; in assay [7] (read-out: 1a Q30R) it was below 1 nM; in assay [7] (read-out: 1a Q30R (nM)), 0.017 nM.
On to `COC(=O)N[C@H](C(=O)N1[C@@H](C)CC[C@H]1c1ncc(-c2ccc3c(c2)COc2cc4c(ccc5nc([C@@H]6CC[C@H](C)N6C(=O)[C@@H](NC(=O)OC)C(C)C)[nH]c54)cc2-3)[nH]1)C(C)C` [Example NG, Methyl {(2S)-1-[(2S,5S)-2-(5-{2-[(2S,5S)-1-{(2S)-2-[(methoxycarbonyl)amino]-3-methylbutanoyl}-5-methylpyrrolidin-2-yl]-1,11-dihydroisochromeno[4′,3′:6,7]naphtho[1,2-d]imidazol-9-yl}-1H-imidazol-2-yl)-5-methylpyrrolidin-1-yl]-3-methyl-1-oxobutan-2-yl}carbamate], for which the EC50 in assay [1] (read-out: 3a) was below 1 nM; in assay [1] (read-out: 3a (nM)), 0.02 nM; in assay [2] (read-out: 2a J6), below 1 nM; in assay [2] (read-out: 2a J6 (s) (nM)) it was 1.67 nM; in assay [2] (read-out: 2a Jb (t) (nM)), 0.37 nM; in assay [3] (read-out: 2b) it was below 1 nM. For the same compound, the EC50 is 0.135 nM in assay [3] (read-out: 2b (s) (nM)); 0.063 nM in assay [3] (read-out: 2b (t) (nM)); below 1 nM in assay [4] (read-out: 2a JFH); 0.01 nM in assay [4] (read-out: 2a JFH (nM)); below 1 nM in assay [5] (read-out: 1a); 0.006 nM in assay [5] (read-out: 1a (nM)). The EC50 is below 1 nM in assay [6] (read-out: 4a), 0.008 nM in assay [6] (read-out: 4a (t) (nM)), below 1 nM in assay [7] (read-out: 1a Q30R) and 0.243 nM in assay [7] (read-out: 1a Q30R (nM)).
Take `CC[C@H](C)[C@H](NC(=O)OC)C(=O)N1C[C@@H](COC)C[C@H]1c1nc2ccc3cc4c(cc3c2[nH]1)OCc1cc(-c2cnc([C@@H]3CC[C@H](C)N3C(=O)[C@@H](NC(=O)OC)[C@@H](C)CC)[nH]2)ccc1-4` [Example NJ, Methyl {(2S,3S)-1-[(2S,5S)-2-(5-{2-[(2S,4S)-1-{(2S,3S)-2-[(methoxycarbonyl)amino]-3-methylpentanoyl}-4-(methoxymethyl)pyrrolidin-2-yl]-1,11-dihydroisochromeno[4′,3′:6,7]naphtho[1,2-d]imidazol-9-yl}-1H-imidazol-2-yl)-5-methylpyrrolidin-1-yl]-3-methyl-1-oxopentan-2-yl}carbamate]: the EC50 in assay [1] (read-out: 3a) was below 1 nM; in assay [1] (read-out: 3a (nM)), 0.019 nM; in assay [2] (read-out: 2a J6), below 1 nM; in assay [2] (read-out: 2a J6 (s) (nM)) it was 0.939 nM; in assay [2] (read-out: 2a Jb (t) (nM)), 0.099 nM; in assay [3] (read-out: 2b) it was below 1 nM. In addition, the EC50 in assay [3] (read-out: 2b (s) (nM)) is 0.416 nM; in assay [3] (read-out: 2b (t) (nM)), 0.094 nM; in assay [4] (read-out: 2a JFH) it was below 1 nM; in assay [4] (read-out: 2a JFH (nM)), 0.007 nM; in assay [5] (read-out: 1a), below 1 nM; in assay [5] (read-out: 1a (nM)) it was 0.007 nM. Besides, the EC50 is below 1 nM in assay [6] (read-out: 4a), 0.017 nM in assay [6] (read-out: 4a (s) (nM)), below 1 nM in assay [7] (read-out: 1a Q30R) and 0.025 nM in assay [7] (read-out: 1a Q30R (nM)).
